The values that follow come from patent publication US20240327320A1, “NOVEL ROUTES OF CHEMICAL SYNTHESIS OF 20S(OH)D3, 20S,25(OH)2D3, 20S,23S(OH)2D3, AND 20S,23R(OH)2D3 AND THEIR MODIFICATION OF THE IMMUNE ACTIVITY OF PBMCS” (United State Government as represen ted by the Department …, priority 2023, published 2024).

Each structure is given as a SMILES string.

The target of one series is T1, Mouse CYP27B1 (Mus musculus, UniProt O35084).
T1 construct: made in house; host or cells: E. coli
T1 sequence (O35084 1-507): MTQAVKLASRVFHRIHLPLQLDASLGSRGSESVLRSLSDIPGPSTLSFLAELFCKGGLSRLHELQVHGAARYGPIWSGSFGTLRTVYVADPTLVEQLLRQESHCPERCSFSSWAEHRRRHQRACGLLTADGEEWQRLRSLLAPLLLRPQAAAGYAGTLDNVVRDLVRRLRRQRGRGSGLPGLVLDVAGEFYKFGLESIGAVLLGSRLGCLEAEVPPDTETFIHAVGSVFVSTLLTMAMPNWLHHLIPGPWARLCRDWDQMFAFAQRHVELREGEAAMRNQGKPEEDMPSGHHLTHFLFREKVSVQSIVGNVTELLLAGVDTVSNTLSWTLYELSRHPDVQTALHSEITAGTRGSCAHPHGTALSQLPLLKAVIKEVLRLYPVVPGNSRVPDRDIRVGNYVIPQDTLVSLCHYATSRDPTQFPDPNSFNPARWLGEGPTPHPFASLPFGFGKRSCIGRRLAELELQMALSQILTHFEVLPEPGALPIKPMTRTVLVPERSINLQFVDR
As to the kind of experiment: CYP27B1 activity on secosteroids in phospholipid vesicles (1α-hydroxylation). Type of series: in vitro ADME. Particulars: for 1α-hydroxylase activity: 0.025 mol secosteroid/mol phospholipid, CYP27B1 0.2 μM, mean±SD, n=3; for rate / efficiency of 1α-hydroxylation by CYP27B1, in words: phospholipid vesicles, mouse CYP27B1. The protocol: Mouse CYP27B1 was expressed in E. coli and purified (Tang E K, et. al., (2010) Drug Metabolism and Disposition, 38(9) 1553-9). CYP27B1 activity was measured on substrate incorporated into the membrane of phospholipid vesicles as described previously. Briefly, phospholipid vesicles were prepared by sonication of dioleoyl phosphatidylcholine, cardiolipin and secosteroid. Vesicles (510 μM phospholipid) were then incubated at 37° C. with CYP27B1 (0.2 μM) in buffer comprising 20 mM Hepes, pH 7.4, 100 mM NaCl, 0.1 mM EDTA, 0.1 mM and dithiothreitol, adrenodoxin (15 μM), adrenodoxin reductase (0.4 μM), glucose-6-phosphate (2 mM), glucose-6-phosphate dehydrogenase (2 U/mL) and NAPDH (50 μM) in a volume of 0.5 ml. After reaction (5 or 20 min), the incubation mixture was extracted 3-times with 2.5 ml dichloromethane, extracts combined, dried under N2 gas and dissolved in 64% methanol. Samples were analysed by reverse phase HPLC on a Grace Alltima column (25×0.46 cm) using a gradient of 64 to 100% methanol for 15 min followed by 100% methanol for 30 min, at a flow rate of 0.5 ml/min. Metabolites were detected with a UV detector at 265 nm.
All four chemically synthesized secosteroids were converted to their expected 1α-hydroxy derivatives by CYP27B1, and identified on the basis of previous studies on the enzymatically and/or chemically derived substrates (Li W, et. al., (2010) Steroids 75(12) 926-35, Tang E K, et. al., (2013) Drug metabolism and disposition: the biological fate of chemicals 41(5) 1112-24, Lin Z, et. al., (2016) J Med Chem 59(10) 5102-8, Tang E K, et. al., (2010) Drug metabolism and disposition: the biological fate of chemicals 38(9) 1553-9). Secosteroids were incorporated into phospholipid vesicles at a ratio of 0.025 mol secosteroid/mol phospholipid and incubated with mouse CYP27B1 (0.2 μM) for 20 min for all substrates except 20S,25(OH)2D3 which was incubated for 5 min. Extracted samples were analyzed by reverse-phase HPLC. Data are mean±SD, n=3. […] In summary, the efficiency of metabolism of D3 derivatives by CYP27B1 is as follows: 20S,25(OH)2D3>>20S,23S(OH)2D3>20S(OH)D3=20S,23R(OH)2D3.

Series [1] deals with CYP24A1 (downstream target of the activated VDR). The experiment in a line: CYP24A1 expression, qPCR of downstream enzymes. Particulars: FIG. 8C. The format is cell-based. The protocol:
RNA isolation and reverse transcription were performed as described previously (Slominski A T, et. al., (2021) Sci Rep 11(1) 8002). Quantitative RT-PCR was carried out using Sybr green Master Mix (Thermo Scientific, Waltham, MA), in triplicates as previously described (Slominski A T, et. al., (2021) Sci Rep 11(1) 8002; Janjetovic Z, et. al., (2014) J Pineal Res 57(1) 90-102). Human epidermal keratinocytes (HEKn) isolated from foreskin of white neonates were cultured until the third passage before treatment as described in the literature (Chaiprasongsuk A, et. al., (2019) Redox Biol 24 101206; Janjetovic Z, et. al., (2009) PloS one 4(6) e5988). Cells were treated with vitamin D3 derivatives for 8 h or 24 h and harvested for RNA isolation. Approximately 300 ng of RNA was used for cDNA synthesis and an equal amount of cDNA was used for PCR reactions. Cyclophilin B or GAPDH was used as an internal control. Primers sequences are listed in (Chaiprasongsuk A, et. al., (2020) Free Radic Biol Med 155 87-9845, Slominski A T, et. al., (2017) Sci Rep 7(1) 11434). Reactions were done in triplicate.
To better define the properties of the newly synthesized secosteroids, their activities on the VDR, AhR and LXR were tested by performing functional assays which were further validated by qPCR of downstream enzymes (FIGS. 8A-F) and molecular modeling (FIG. 9-13). Binding affinities of top-scored docking complexes of vitamin D3 hydroxy derivatives with VDR, AhR, LXRs (LXRα, LXRβ) and RORs (RORα, RORγ) from molecular docking are presented in FIG. 9, known ligands for each receptor were used as controls.

As to `C=C1CC[C@H](O)C/C1=C/C=C1\CCC[C@@]2(C)[C@H]1CC[C@@H]2[C@@](C)(O)C[C@H](O)CC(C)C` [20S,23R(OH)2D3, (20S,23R)-20,23-Dihydroxyvitamin D3], the 1α-hydroxylase activity at Mouse CYP27B1 (incubated 20 min) was 0.117 ± 0.027 mol product/min/mol CYP27B1. Moreover, in series [1], the CYP24A1 expression entry is on record as “significantly less expression than 1α,25(OH)2D3”.
With `C=C1CC[C@H](O)C/C1=C/C=C1\CCC[C@@]2(C)[C@H]1CC[C@@H]2[C@@](C)(O)CCCC(C)(C)O` [20S,25(OH)2D3, (20S)-20,25-Dihydroxyvitamin D3], the 1α-hydroxylase activity on Mouse CYP27B1 (incubated 5 min) is 7.98 ± 0.24 mol product/min/mol CYP27B1. Also, the “rate / efficiency of 1α-hydroxylation by CYP27B1, in words” value (“rate / efficiency of 1α-hydroxylation” for short) at Mouse CYP27B1 is reported as “high rate of 1α-hydroxylation”. The CYP24A1 expression entry in series [1] was “much greater stimulation of CYP24A1 expression than 20S(OH)D3”.
On to `C=C1CC[C@H](O)C/C1=C/C=C1\CCC[C@@]2(C)[C@H]1CC[C@@H]2[C@@](C)(O)C[C@@H](O)CC(C)C` [20S,23S(OH)2D3, (20S,23S)-20,23-Dihydroxyvitamin D3], for which the 1α-hydroxylase activity at Mouse CYP27B1 (incubated 20 min) is reported as 0.258 ± 0.020 mol product/min/mol CYP27B1. In addition, the “rate / efficiency of 1α-hydroxylation” value on Mouse CYP27B1 is “metabolized approximately twice as fast as the non-natural 20S,23R-isomer”. In addition, the CYP24A1 expression result in series [1] was “significantly less expression than 1α,25(OH)2D3”.
For the compound `C=C1CC[C@H](O)C/C1=C/C=C1\CCC[C@@]2(C)[C@H]1CC[C@@H]2[C@@](C)(O)CCCC(C)C` [20S(OH)D3, (20S)-20-Hydroxyvitamin D3], at Mouse CYP27B1 (incubated 20 min), the 1α-hydroxylase activity is recorded as 0.135 ± 0.005 mol product/min/mol CYP27B1. The “rate / efficiency of 1α-hydroxylation” value at Mouse CYP27B1 is on record as “relatively poorer substrate for CYP27B1”.
